The structures appear in SMILES notation.

Broadly, the IC50 is the concentration needed to halve the response being measured. A low value points to inhibition by little substance. A word on the pKa: it is the pH at which an ionisable group is half protonated. Lower therefore signals a group that gives up its proton readily. A word on the EC50: it is the concentration needed to bring the measured effect to its halfway point.

Series [1] deals with T1, Alpha-1A adrenergic receptor (Homo sapiens, UniProt P35348).
T1 sequence (P35348 whole entry): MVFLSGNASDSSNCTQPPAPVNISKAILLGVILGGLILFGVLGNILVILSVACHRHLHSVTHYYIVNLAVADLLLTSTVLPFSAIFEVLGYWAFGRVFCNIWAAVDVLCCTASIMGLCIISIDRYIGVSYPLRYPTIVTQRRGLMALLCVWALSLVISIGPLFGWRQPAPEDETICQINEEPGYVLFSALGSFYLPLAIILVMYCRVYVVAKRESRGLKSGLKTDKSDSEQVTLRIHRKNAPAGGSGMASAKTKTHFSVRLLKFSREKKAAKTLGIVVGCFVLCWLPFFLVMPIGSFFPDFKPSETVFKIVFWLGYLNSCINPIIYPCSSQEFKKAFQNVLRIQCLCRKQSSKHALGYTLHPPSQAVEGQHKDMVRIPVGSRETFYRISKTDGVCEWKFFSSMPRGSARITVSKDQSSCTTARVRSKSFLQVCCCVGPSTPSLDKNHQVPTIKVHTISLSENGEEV
Put plainly: In vitro binding affinity against cloned human alpha-1A-adrenoceptor receptors expressed in rat-1 fibroblasts.

Series [2] in a line: Acid dissociation constant for the compound was determined. The series is classed as ADME.
For series [3], the target named is T2, Alpha-1D adrenergic receptor (Homo sapiens, UniProt P25100).
T2 sequence (P25100 whole entry): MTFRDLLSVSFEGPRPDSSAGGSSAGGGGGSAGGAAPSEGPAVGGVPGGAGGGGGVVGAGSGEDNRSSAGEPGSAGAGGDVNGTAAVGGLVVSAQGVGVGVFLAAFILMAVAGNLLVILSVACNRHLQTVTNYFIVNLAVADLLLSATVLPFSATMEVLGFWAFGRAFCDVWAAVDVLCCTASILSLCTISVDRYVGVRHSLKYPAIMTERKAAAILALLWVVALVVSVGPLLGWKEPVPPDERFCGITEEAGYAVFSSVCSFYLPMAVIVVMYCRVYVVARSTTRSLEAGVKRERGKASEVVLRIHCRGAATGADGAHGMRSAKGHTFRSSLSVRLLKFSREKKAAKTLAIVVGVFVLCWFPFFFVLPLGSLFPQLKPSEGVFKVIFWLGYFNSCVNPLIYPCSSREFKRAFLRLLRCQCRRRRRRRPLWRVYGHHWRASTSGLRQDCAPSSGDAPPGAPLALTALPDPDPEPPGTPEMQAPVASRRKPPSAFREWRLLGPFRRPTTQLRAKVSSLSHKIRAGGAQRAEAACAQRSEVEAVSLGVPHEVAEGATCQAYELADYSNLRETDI
The series is described as follows: In vitro binding affinity against cloned human alpha-1D-adrenoceptor receptors expressed in rat-1 fibroblasts.

Series [4] concerns the target T3, Alpha-1B adrenergic receptor (Homo sapiens, UniProt P35368).
T3 sequence (P35368 whole entry): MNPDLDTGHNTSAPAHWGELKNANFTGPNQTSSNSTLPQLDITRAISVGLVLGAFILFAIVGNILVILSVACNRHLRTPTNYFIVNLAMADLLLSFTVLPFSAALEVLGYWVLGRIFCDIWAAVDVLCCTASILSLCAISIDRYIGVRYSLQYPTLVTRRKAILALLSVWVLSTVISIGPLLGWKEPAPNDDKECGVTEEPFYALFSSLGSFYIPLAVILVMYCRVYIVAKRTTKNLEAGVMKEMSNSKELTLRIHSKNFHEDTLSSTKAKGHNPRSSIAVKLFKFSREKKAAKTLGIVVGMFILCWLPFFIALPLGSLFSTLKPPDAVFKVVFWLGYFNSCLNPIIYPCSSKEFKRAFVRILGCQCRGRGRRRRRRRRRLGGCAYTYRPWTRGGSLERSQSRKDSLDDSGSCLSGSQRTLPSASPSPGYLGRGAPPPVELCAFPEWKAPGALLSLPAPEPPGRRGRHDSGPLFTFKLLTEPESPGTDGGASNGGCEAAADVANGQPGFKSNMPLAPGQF
Put plainly: In vitro binding affinity against cloned human alpha-1B-adrenoceptor receptors expressed in rat-1 fibroblasts.

Series [5] addresses T4, Alpha-1A adrenergic receptor (Homo sapiens) (UniProt P35348).
T4 sequence (whole entry): T1 sequence (P35348 whole entry)
Put plainly: Activation of human alpha-1A adrenergic receptor expressed in rat-1 fibroblasts; expressed as a percent of the maximal effect of the phenylephrine. It is filed as functional.

Series [6] concerns the target T2, Alpha-1D adrenergic receptor. The series is described as follows: Activation of human Alpha-1D adrenergic receptors expressed in rat-1 fibroblasts. The series is classed as functional.
For series [7], the target named is T3, Alpha-1B adrenergic receptor. Put plainly: Activation of human alpha-1B adrenergic receptors expressed in rat-1 fibroblasts. The series is classed as functional.
For series [8], the target named is T5, Alpha-1D adrenergic receptor (Homo sapiens) (UniProt P25100).
T5 sequence (whole entry): T2 sequence (P25100 whole entry)
Put plainly: Activation of human alpha-1D-adrenoceptor receptor expressed in rat-1 fibroblasts relative to phenylephrine. It is filed as functional.

Series [9] addresses T1, Alpha-1A adrenergic receptor. Put plainly: Activation of human alpha-1A adrenergic receptor expressed in rat-1 fibroblasts. The series is classed as functional.
The target in series [10] is T6, Alpha-1B adrenergic receptor (Homo sapiens) (UniProt P35368).
T6 sequence (whole entry): T3 sequence (P35368 whole entry)
Put plainly: Activation of human alpha-1B-adrenoceptor receptors expressed in rat-1 fibroblasts as percent maximal effect relative to phenylephrine. The series is classed as functional.

As for `CSc1ccccc1NCC1=NCCN1`, the IC50 in [1] was 107 nM; in series [3], 19.5 nM; in series [4], 219 nM. The molecule also returned a pKa in series [2] of 10.3. Further, the results for the Max in series [5], in [8] and in series [10] were 105%, 55% and 105%, respectively. Also, the EC50 in series [6] was 7.94 nM; in series [7], 2 nM; in [9], 5.01 nM.

Source of the values: ChEMBL document CHEMBL1134991, “Alpha(1)-adrenoceptor activation: a comparison of 4-(anilinomethyl)imidazoles and 4-(phenoxymethyl)imidazoles to related 2-imidazolines” (Bioorg Med Chem Lett, 2002).
